Tested on: living body
Experiment: Toxicity test
Details: in vivo

CN(C)c1ccc(O)c2c1C[C@H]1C[C@H]3[C@H](N(C)C)C(O)=C(C(N)=O)C(=O)[C@@]3(O)C(O)=C1C2=O [minocycline]
side effects on the living body: no particular side effects
